Experimental data as given in patent publication US8114892B2, “Methods and compositions for the treatment of Parkinson's Disease” (The McLean Hospital Corporation, priority 2006, dated 2012).
“Also recorded” adds a separate entry of the source.

How the values were obtained:
Assay type in all cases: cell-based
Nurr1 = target: T1, Nurr1 (Homo sapiens, UniProt P43354); assay: Primary screening: Nurr1 effector with 2.6-TH promoter firefly luciferase reporter, transient transfection in SK-N-BE(2)C cells; conditions: incubation for eighteen hours; for Hit identification in repeated primary screening (luciferase activity): pcDNA-Nurr1 construct
T1 construct: effector plasmid containing the Nurr1 gene; expressed in transfected cells; host or cells: SK-N-BE(2)C human neuroblastoma cells, transient transfection
Procedure: FIG. 5A is a chart showing preliminary screening data with a small chemical library. Transiently expressed Nurr1 activity in SK-N-BE(2)C cells was measured by luciferase activity with 2.6-TH promoter after incubation with each compound for eighteen hours. […] Each column has eight different chemical compounds. FIG. 5B is a chart showing further preliminary screening data with a small chemical library. Transiently expressed Nurr1 activity in SK-N-BE(2)C cells was measured by luciferase activity with 2.6-TH promoter after incubation with each compound for eighteen hours. […] Each column has eight different chemical compounds.
Transiently expressed Nurr1 activity in SK-N-BE(2)C cells was measured by luciferase activity after incubation of each compound with the pcDNA-Nurr1 construct for eighteen hours.
A cell-based system exploiting Nurr1's activation of TH was created in order to develop an assay for identification of Nurr1-activating compounds. […] In addition, a transient transfection was selected, rather than using stable cell-line transfection, to favor the maximum responsiveness of compounds to the reporter gene in order to detect low-affinity hit chemicals in the first screening. Another parameter considered was the selection of short-sized natural TH promoters with all essential NBRE (Nurr1-binding)-like motifs rather than one specific kind of NBRE-motif, based on the assumption that the natural promoter generates closer biological screening condition than artificially copied promoter and the false positive chemicals due to the interaction of other unrelated transcription factors can be easily ruled out by the effective secondary screening method.
To explore this new Nurr1 cell based assay system, several combinations of variable parameters, including effector gene promoter, internal control gene promoter, TH promoter size, promoter of internal control gene, transient transfection condition, serum concentration, and DMSO effect were tried. […]

[1] = test system: mouse ES cell-derived neurons (ES cell lines D3 and J1); assay: Dopaminergic neuronal differentiation of ES cells in vitro (5-stage method), TH+/Tuj1+ immunostaining; conditions: 2 uM added at day five of the ES-derived neuronal stage for four days
Description: FIG. 10A is a pair of photos showing embryonic stem (ES) cell-derived neurons subjected to an indirect immunohistochemical assay (TH+/Tuj1+ staining). ES-derived neurons were immunolabeled with anti-β-tubulin III and anti-TH. Superposition of both proteins under a fluorescent microscope is shown in white. DMSO was used as a control.
For in vitro differentiation of ES cells, we used the 5-stage method, which is known in the art (see, e.g., Lee et al., Nat. Biotechnol. 18:675-679, 2000) and is useful for distinguishing each stage of developmental progression of ES cells. The mouse blastocyst-derived ES cell lines D3 and J1 were propagated and maintained according to methods well-known in the art (see, e.g., Deacon et al., Exp. Neurol., 149:28-41, 1998, and Chung et al., Stem Cells, 20:139-145, 2002). The mouse ES cells were generated as embryoid bodies (EBs) on nonadherent bacterial dishes for four days in growth medium consisting of DMEM supplemented with 2 mM L-glutamine, 0.001% β-mercaptoethanol, 1× non-essential amino acids (all from Invitrogen), and 10% FBS (Hyclone). The EBs were then plated onto adhesive tissue culture dish surfaces. After 24 hours in culture, selection of nestin-positive cells was performed in serum-free ITSFn medium. […]

GAL4 DBD-Nurr1 LBD = target: T2, GAL4 DBD-Nurr1 LBD (Homo sapiens, UniProt P43354); assay: Secondary screening: GAL4-DBD construct fused with Nurr1-LBD, luciferase reporter in SK-N-BE(2)C cells; conditions: incubation for eighteen hours
T2 construct: expressed in transfected cells; host or cells: SK-N-BE(2)C cells, transient transfection
Procedure: FIG. 7 includes a chart showing secondary screening data with primary hit chemicals. Transiently expressed Nurr1 activity in SK-N-BE(2)C cells was measured by luciferase activity after incubation of each compound with GAL4-DBD construct fused with Nurr1-LBD for eighteen hours. […] Also shown is a schematic representation of the GAL4-DBD-Nurr1-LBD fusion construct activating the firefly luciferase reporter gene.
As a secondary screening system, GAL4 DNA binding domain (DBD) constructs were used, which separately fused whole Nurr1, Nurr1-ligand binding domain (LBD), or Nurr1-DNA binding domain to the yeast GAL4 DBD. […] 6-MP, regulating Nurr1 through a region in the amino terminus, was used as a negative control in this experiment.

T1 sequence (P43354 whole entry): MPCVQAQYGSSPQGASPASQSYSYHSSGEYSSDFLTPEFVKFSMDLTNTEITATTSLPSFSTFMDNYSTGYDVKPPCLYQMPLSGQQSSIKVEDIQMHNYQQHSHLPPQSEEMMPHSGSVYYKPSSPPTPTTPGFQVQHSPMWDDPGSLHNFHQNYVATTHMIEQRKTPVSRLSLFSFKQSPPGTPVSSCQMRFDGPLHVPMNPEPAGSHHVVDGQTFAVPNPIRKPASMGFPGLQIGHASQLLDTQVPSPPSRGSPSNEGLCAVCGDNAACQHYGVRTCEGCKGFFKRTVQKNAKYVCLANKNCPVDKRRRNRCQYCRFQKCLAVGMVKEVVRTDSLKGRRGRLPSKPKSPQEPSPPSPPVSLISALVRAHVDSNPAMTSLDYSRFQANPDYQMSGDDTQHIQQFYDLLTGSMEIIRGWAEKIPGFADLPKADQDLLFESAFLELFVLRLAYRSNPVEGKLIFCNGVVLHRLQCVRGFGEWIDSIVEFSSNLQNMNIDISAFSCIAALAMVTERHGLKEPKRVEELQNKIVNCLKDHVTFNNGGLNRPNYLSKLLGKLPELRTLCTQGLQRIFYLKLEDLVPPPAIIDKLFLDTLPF
T2 sequence (P43354 360-595 limits assumed): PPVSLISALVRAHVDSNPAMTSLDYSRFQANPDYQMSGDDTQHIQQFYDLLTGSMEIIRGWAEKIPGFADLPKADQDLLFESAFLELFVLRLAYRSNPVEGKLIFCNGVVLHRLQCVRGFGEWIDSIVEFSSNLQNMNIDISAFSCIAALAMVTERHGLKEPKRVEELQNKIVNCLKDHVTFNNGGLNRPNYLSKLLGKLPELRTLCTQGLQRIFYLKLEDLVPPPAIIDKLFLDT
T2 sequence (P04386 1-147 partner limits assumed): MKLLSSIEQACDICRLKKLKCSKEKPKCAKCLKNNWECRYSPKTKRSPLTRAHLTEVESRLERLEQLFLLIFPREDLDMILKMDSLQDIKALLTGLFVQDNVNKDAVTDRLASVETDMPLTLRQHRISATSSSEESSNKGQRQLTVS

Structure (SMILES) | Hit identification in repeated primary screening (luciferase activity) (Nurr1) | Number of TH+ cells during in vitro ES cell differentiation, in comparison with the control DMSO [1] | Hit identification in secondary screening (luciferase activity) (GAL4 DBD-Nurr1 LBD; listed as Amodiaquine) | Hit identification in secondary screening (luciferase activity) (GAL4 DBD-Nurr1 LBD; listed as amodiaquine) | Hit identification in secondary screening (luciferase activity) (GAL4 DBD-Nurr1 LBD) | Luciferase activity compared to control with DMSO, preliminary screening (Nurr1; 2.6-TH promoter)
CCN(CC)Cc1cc(Nc2ccnc3cc(Cl)ccc23)ccc1O [Amodiaquine (4E), amodiaquine] | hit candidates | increased the number of TH+ cells | identified as hit candidate compounds | hit candidates | – | –
O=C(OCC(O)CO)c1ccccc1Nc1ccnc2cc(Cl)ccc12 (stereo not shown) [Glafenine (11D), glafenine] | hit candidates | – | – | – | identified as hit candidate compounds; also recorded: hit candidates | –
CCN(CC)CCCC(C)Nc1ccnc2cc(Cl)ccc12 (stereo not shown) [Chloroquine diphosphate, chloroquine diphosphate] | – | – | – | – | – | apparent increase in luciferase activity
